According to ChEMBL document CHEMBL4706599, “Discovery of novel quinazoline derivatives as potent PI3Kδ inhibitors with high selectivity” (Eur J Med Chem, 2020):

Tests used:
[1] = system: Raji; test: Antiproliferative activity against human Raji cells assessed as inhibition of cell growth after 48 hrs by MTT assay; type: functional, cell-based
[2] = target: T1, Phosphatidylinositol 4,5-bisphosphate 3-kinase catalytic subunit delta isoform (Homo sapiens, UniProt O00329); test: Inhibition of PI3Kdelta (unknown origin) by ADP-Glo kinase assay
T1 sequence (O00329 whole entry): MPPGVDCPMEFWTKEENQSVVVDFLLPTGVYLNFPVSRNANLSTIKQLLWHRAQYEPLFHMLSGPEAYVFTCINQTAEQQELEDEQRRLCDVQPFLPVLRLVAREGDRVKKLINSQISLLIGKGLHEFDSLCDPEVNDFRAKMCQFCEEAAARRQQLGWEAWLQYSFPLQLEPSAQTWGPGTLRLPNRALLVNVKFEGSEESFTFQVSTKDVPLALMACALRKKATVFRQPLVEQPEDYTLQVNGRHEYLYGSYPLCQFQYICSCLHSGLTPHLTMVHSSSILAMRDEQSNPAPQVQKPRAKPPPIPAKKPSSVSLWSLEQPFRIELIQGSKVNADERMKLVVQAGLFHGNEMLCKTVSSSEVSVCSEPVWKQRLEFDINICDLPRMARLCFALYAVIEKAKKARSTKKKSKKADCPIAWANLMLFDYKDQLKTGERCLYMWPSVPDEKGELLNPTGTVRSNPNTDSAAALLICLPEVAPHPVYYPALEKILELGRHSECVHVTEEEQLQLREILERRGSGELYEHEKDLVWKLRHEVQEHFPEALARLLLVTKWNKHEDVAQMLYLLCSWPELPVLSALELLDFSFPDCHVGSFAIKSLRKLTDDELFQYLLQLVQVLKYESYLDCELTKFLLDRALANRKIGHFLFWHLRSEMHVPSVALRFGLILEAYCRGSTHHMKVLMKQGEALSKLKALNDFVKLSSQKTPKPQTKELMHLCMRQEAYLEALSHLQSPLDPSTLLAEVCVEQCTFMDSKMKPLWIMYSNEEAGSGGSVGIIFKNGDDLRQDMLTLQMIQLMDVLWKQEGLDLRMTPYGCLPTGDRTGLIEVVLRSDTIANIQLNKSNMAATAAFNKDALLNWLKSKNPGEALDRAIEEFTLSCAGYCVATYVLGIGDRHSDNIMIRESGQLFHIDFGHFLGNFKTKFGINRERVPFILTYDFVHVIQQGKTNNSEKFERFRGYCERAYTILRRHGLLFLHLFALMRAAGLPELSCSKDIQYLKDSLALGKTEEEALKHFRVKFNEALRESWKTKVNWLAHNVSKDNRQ

[3] = system: Ramos; test: Antiproliferative activity against human Ramos cells assessed as inhibition of cell growth after 48 hrs by MTT assay; type: functional, cell-based
[4] = target: T2, Phosphatidylinositol 4,5-bisphosphate 3-kinase catalytic subunit delta isoform (Homo sapiens) (UniProt O00329); test: Inhibition of PI3Kdelta (unknown origin) at 200 nM by ADP-Glo kinase assay relative to control
T2 sequence (whole entry): T1 sequence (O00329 whole entry)

[5] = system: Raji; test: Induction of apoptosis in human Raji cells assessed as late apoptotic cells at 5 uM measured after 24 hrs by Annexin V-FITC/PI staining based flow cytometry (reference value: 2.11 %); type: functional
[6] = Metabolic stability in rat liver microsomes assessed as compound remaining at 1 uM measured up to 45 mins in presence of NADPH by LC/MS analysis; type: ADME, Microsome; conditions: 0.75 h
[7] = system: Raji; test: Antiproliferative activity against human Raji cells assessed as reduction in cell viability at 10 uM after 24 hrs by MTT assay; type: functional
[8] = species: Homo sapiens; test: Selectivity index, ratio of IC50 for PI3Kbeta (unknown origin) to IC50 for PI3Kdelta (unknown origin)
[9] = target: Phosphatidylinositol 4,5-bisphosphate 3-kinase catalytic subunit gamma isoform (Homo sapiens, UniProt P48736); test: Inhibition of PI3Kgamma (unknown origin)
[10] = system: Raji; test: Antiproliferative activity against human Raji cells assessed as reduction in cell viability at 10 uM by MTT assay; type: functional, cell-based; conditions: TDE = time-dependent effect
[11] = species: Homo sapiens; test: Selectivity index, ratio of IC50 for PI3Kgamma (unknown origin) to IC50 for PI3Kdelta (unknown origin)
[12] = system: Raji; test: Inhibition of PI3K/Akt signalling pathway in human Raji cells assessed as reduction in Akt phosphorylation at Ser473 residue after 24 hrs by Western blot analysis; type: cell-based; conditions: dose 1-1000 nM
[13] = system: Raji; test: Antiproliferative activity against human Raji cells assessed as reduction in cell viability after 24 hrs by MTT assay; type: functional, cell-based; conditions: dose 0.2-15 µM
[14] = Metabolic stability in human liver microsomes assessed as compound remaining at 1 uM measured up to 45 mins in presence of NADPH by LC/MS analysis; type: ADME, Microsome; conditions: 0.75 h
[15] = target: Phosphatidylinositol 4,5-bisphosphate 3-kinase catalytic subunit beta isoform (Homo sapiens, UniProt P42338); test: Inhibition of PI3Kbeta (unknown origin)
[16] = species: Homo sapiens; test: Selectivity index, ratio of IC50 for PI3Kalpha (unknown origin) to IC50 for PI3Kdelta (unknown origin)
[17] = target: Phosphatidylinositol 4,5-bisphosphate 3-kinase catalytic subunit alpha isoform (Homo sapiens, UniProt P42336); test: Inhibition of PI3Kalpha (unknown origin)
Sequence of Phosphatidylinositol 4,5-bisphosphate 3-kinase catalytic subunit alpha isoform (P42336 whole entry, canonical isoform): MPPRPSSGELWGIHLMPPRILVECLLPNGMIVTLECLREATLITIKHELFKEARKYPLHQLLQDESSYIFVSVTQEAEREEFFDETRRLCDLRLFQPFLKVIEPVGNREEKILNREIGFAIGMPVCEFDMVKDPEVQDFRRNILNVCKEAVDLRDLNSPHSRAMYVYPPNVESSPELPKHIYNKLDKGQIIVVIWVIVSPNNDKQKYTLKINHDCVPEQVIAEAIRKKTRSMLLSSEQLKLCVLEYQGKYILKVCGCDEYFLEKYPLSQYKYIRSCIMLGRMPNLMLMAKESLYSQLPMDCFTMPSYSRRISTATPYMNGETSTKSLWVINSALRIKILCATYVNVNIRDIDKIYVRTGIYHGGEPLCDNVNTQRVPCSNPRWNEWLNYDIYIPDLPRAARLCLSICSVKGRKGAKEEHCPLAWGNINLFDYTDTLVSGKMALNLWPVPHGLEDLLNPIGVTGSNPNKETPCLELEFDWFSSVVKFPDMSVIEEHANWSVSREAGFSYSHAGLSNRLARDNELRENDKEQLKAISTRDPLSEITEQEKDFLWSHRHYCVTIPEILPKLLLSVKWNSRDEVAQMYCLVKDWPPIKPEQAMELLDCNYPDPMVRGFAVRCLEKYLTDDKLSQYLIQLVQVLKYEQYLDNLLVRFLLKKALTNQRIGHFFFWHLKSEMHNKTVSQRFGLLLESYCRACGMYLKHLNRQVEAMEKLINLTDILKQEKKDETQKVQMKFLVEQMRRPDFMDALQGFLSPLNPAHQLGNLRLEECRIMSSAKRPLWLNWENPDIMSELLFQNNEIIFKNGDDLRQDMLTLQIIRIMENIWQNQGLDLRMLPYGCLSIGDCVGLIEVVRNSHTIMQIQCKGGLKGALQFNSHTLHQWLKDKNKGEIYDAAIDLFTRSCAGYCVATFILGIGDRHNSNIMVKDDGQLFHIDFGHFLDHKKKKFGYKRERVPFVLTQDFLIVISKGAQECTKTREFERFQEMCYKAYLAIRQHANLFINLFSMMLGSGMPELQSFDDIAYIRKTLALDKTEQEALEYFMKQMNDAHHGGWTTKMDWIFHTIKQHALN

Sequence of Phosphatidylinositol 4,5-bisphosphate 3-kinase catalytic subunit beta isoform (P42338 whole entry, canonical isoform): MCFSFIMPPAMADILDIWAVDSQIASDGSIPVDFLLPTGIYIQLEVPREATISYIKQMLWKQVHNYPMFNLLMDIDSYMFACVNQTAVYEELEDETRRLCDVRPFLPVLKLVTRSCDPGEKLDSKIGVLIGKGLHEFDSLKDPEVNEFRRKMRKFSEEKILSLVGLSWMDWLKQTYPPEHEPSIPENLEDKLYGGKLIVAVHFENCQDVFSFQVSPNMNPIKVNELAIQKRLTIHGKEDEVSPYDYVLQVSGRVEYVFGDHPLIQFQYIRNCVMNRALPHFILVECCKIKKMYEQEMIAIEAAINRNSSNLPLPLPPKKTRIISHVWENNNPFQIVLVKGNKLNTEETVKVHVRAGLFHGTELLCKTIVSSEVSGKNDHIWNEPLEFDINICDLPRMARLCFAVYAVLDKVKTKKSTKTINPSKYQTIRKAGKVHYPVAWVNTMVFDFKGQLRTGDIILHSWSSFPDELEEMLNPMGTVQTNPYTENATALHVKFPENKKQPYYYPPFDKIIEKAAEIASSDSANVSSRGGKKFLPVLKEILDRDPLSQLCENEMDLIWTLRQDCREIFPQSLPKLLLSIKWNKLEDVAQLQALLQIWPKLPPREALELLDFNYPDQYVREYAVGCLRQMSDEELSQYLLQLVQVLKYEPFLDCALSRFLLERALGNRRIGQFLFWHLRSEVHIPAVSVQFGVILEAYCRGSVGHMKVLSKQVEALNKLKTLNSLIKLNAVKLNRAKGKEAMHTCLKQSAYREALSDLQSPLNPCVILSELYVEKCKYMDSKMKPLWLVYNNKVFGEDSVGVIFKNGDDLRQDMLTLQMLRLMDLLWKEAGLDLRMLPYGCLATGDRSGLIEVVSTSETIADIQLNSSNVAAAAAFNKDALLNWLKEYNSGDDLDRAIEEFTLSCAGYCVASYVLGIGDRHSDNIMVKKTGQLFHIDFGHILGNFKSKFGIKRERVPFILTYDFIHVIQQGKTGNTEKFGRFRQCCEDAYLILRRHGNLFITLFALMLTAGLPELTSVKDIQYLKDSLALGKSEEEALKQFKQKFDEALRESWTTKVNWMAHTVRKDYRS
Sequence of Phosphatidylinositol 4,5-bisphosphate 3-kinase catalytic subunit gamma isoform (P48736 whole entry, canonical isoform): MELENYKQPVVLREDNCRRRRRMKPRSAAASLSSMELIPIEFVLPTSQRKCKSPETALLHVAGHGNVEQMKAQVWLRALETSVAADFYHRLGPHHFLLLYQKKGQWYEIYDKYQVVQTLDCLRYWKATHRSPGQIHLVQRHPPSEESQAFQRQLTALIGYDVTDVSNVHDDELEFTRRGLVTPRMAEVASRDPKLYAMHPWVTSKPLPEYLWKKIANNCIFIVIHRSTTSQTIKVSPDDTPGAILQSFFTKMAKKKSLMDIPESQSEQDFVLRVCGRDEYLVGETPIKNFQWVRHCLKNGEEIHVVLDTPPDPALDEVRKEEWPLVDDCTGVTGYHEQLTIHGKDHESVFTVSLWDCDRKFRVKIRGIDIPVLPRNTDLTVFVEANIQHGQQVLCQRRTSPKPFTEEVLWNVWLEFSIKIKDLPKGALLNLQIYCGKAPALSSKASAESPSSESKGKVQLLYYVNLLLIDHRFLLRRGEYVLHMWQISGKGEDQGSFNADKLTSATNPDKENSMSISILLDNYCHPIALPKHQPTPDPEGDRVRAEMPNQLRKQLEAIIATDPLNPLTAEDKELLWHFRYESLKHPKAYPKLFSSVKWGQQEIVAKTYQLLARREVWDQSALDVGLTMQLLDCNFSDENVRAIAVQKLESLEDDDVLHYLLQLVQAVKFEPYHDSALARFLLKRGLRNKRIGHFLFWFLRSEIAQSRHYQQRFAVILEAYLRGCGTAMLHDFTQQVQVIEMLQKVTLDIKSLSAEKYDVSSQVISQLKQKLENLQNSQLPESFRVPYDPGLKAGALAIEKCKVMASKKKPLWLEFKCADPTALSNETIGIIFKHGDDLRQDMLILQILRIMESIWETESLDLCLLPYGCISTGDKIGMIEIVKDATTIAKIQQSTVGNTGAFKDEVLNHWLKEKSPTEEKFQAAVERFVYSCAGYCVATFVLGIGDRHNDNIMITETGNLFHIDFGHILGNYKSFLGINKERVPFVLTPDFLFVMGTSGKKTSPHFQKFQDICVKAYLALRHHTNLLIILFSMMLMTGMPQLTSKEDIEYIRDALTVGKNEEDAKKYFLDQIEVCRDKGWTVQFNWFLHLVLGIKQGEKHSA

SMILES | IC50 [1] [µM] | IC50 [2] [µM] | IC50 [3] [µM] | inhibition [4] [%] | other results
C=CC(=O)N1CCc2ccc(Nc3ncnc4ccc(-c5cnc6ccccc6c5)cc34)cc21 | 0.9 | 0.495 | 17 | – | –
C=CC(=O)Nc1cccc(Nc2ncnc3ccc(-c4cnc5ccccc5c4)cc23)c1 | 3.5 | 0.117 | > 50 | – | –
CCC(=O)Nc1cccc(Nc2ncnc3ccc(-c4cnc5ccccc5c4)cc23)c1 | – | 0.021 | – | – | –
C=CC(=O)Nc1cccc(Oc2ncnc3ccc(-c4cnc5ccccc5c4)cc23)c1 | 8.6 | – | 10.6 | 29.5 | –
Cn1c(=O)n(-c2ccc(C(C)(C)C#N)cc2)c2c3cc(-c4cnc5ccccc5c4)ccc3ncc21 [DACTOLISIB] | 0.3 | – | 0.6 | 66.3 | Activity [5]: 10.24%
C/C=C/C(=O)Nc1cccc(Nc2ncnc3ccc(-c4cnc5ccccc5c4)cc23)c1 | 2.7 | 0.129 | 5 | – | –
CC#CC(=O)Nc1cccc(Nc2ncnc3ccc(-c4cnc5ccccc5c4)cc23)c1 | – | 0.41 | > 50 | – | –
C=CC(=O)Nc1cccc(Nc2ncnc3ccc(-c4ccc(Cl)nc4)cc23)c1 | 11.6 | 0.104 | – | 64.6 | –
C=CC(=O)Nc1cccc(Oc2ncnc3ccc(-c4cccnc4)cc23)c1 | 14.8 | – | 9.4 | 41.8 | –
C=CC(=O)Nc1cccc(Oc2ncnc3ccc(-c4ccc(Cl)nc4)cc23)c1 | – | – | 10.1 | 33.1 | –
C=CC(=O)Nc1cc(Nc2ncnc3ccc(-c4cnc5ccccc5c4)cc23)ccc1C | 8.5 | 0.0275 | 5.4 | – | Stabilty [6]: Unstable; Activity [7]: >50%; Activity [5]: 10.78%; Ratio IC50 [8]: 300; IC50 [9]: 1.25 µM; Activity [10]: Tde; Ratio IC50 [11]: 45; inhibition [12]: Dose-dependent effect; Activity [13]: Dose-dependent effect; Stabilty [14]: Unstable; IC50 [15]: 19.6 µM; Ratio IC50 [16]: 20; IC50 [17]: 0.561 µM
C=CC(=O)Nc1cccc(Oc2ncnc3ccc(-c4ccc(F)nc4)cc23)c1 | 11 | – | 11 | 23.4 | –
C=CC(=O)Nc1cccc(Nc2ncnc3ccc(-c4ccc(F)nc4)cc23)c1 | > 50 | – | – | 46.6 | –
